Reference: patent US5596002A, “Method of treating chloroquine-resistant malaria with aminoquinoline derivatives” (Hoffmann-La Roche Inc., priority 1993, dated 1997)
Values after ≈ are worked out from the molar mass of the structure shown.

Assays:
Assay type in all cases: cell-based
[1] = tested on: Plasmodium falciparum, chloroquine-sensitive strain NF54; experiment: activity against P. falciparum in vitro, strain NF54; conditions: Plasmodium falciparum; chloroquine-sensitive strain NF54; 48 h-72 h; read-out: IC50 (50% growth inhibition)
Description: (§1) Test method for the determination of the activity against P. falciparum in vitro
(§2) The preparations of the present invention were tested on intraerythrocytary stages of P. falciparum from asynchronous cultures according to the method of Desjardin et al. (Desjardins, R. E. et al: Quantitative assessment of antimalarial activity in vitro by a semiautomated microdilution technique. Antimicrob. Agents Chemother. 16, 710-718, (1979)).
(§3) The culture medium consisted of RPMI 1640 with the addition of 25 mM HEPES, 25 mM NaHCO3, […] neomycin and 10% human serum (A^+). Human-A^+ erythrocytes were used as the P. falciparum host cells. The parasites were maintained at 37° C. in an atmosphere of 3% O2, 4% CO2, 93% N2 and at 95% relative humidity.
(§4) In order to determine the activity, the preparations were dissolved in DMSO, pre-diluted in the culture medium to a suitable starting concentration and subsequently titrated-out into microtitre plates in the 2nd stage over 6-7 steps. After the addition of the parasite culture (0.7% parasitemia in 2.5% erythrocyte suspension), the test plates were incubated under the conditions given above for 48 h-72 h. The parasite growth in the different preparation concentrations was determined using [G-^3 H]-hypoxanthin incorporation compared to untreated control cultures on the same test plates. The 50% growth inhibition (IC50) was calculated according to logit regression analysis from the resulting dosage-activity curve.
(§5) The preparations were tested on at least one chloroquine-resistant and one chloroquine-sensitive P. falciparum strain. Additional sensitive and resistant strains were also included for further characterization.
(§6) Table 1 below contains the IC50 values measured in vitro for the growth inhibition of chloroquine-sensitive and chloroquine-resistant strains of the human pathogenic Plasmodium falciparum.

[2] = tested on: Plasmodium falciparum, chloroquine-sensitive strain Ro7 3; experiment: activity against P. falciparum in vitro, strain Ro7 3; conditions: chloroquine-sensitive strain Ro7 3, 48 h-72 h, read-out: IC50 (50% growth inhibition)
Description: as §1, §2, §3, §4, §5, §6

[3] = tested on: Plasmodium falciparum, chloroquine-sensitive strain RFMEF3; experiment: activity against P. falciparum in vitro, strain RFMEF3; conditions: chloroquine-sensitive strain RFMEF3, 48 h-72 h, read-out: IC50 (50% growth inhibition)
Description: as §1, §2, §3, §4, §5, §6

[4] = tested on: Plasmodium falciparum, chloroquine-sensitive strain HB3; experiment: activity against P. falciparum in vitro, strain HB3; conditions: chloroquine-sensitive strain HB3, 48 h-72 h, read-out: IC50 (50% growth inhibition)
Description: as §1, §2, §3, §4, §5, §6

[5] = tested on: Plasmodium falciparum, chloroquine-resistant strain W2; experiment: activity against P. falciparum in vitro, strain W2; conditions: chloroquine-resistant strain W2, 48 h-72 h, read-out: IC50 (50% growth inhibition)
Description: as §1, §2, §3, §4, §5, §6

[6] = tested on: Plasmodium falciparum, chloroquine-resistant strain K1; experiment: activity against P. falciparum in vitro, strain K1; conditions: Plasmodium falciparum; chloroquine-resistant strain K1; 48 h-72 h; read-out: IC50 (50% growth inhibition)
Description: as §1, §2, §3, §4, §5, §6

[7] = tested on: Plasmodium falciparum, chloroquine-resistant strain Indo; experiment: activity against P. falciparum in vitro, strain Indo; conditions: chloroquine-resistant strain Indo, 48 h-72 h, read-out: IC50 (50% growth inhibition)
Description: as §1, §2, §3, §4, §5, §6

[8] = tested on: Plasmodium falciparum, chloroquine-resistant strain RFCR3; experiment: activity against P. falciparum in vitro, strain RFCR3; conditions: chloroquine-resistant strain RFCR3, 48 h-72 h, read-out: IC50 (50% growth inhibition)
Description: as §1, §2, §3, §4, §5, §6

[9] = tested on: Plasmodium falciparum, chloroquine-resistant strain 7G8; experiment: activity against P. falciparum in vitro, strain 7G8; conditions: chloroquine-resistant strain 7G8, 48 h-72 h, read-out: IC50 (50% growth inhibition)
Description: as §1, §2, §3, §4, §5, §6

[10] = tested on: Plasmodium falciparum, chloroquine-resistant strain ItG2 F6; experiment: activity against P. falciparum in vitro, strain ItG2 F6; conditions: chloroquine-resistant strain ItG2 F6, 48 h-72 h, read-out: IC50 (50% growth inhibition)
Description: as §1, §2, §3, §4, §5, §6

[11] = tested on: Plasmodium falciparum, chloroquine-resistant strain W2 Mef; experiment: activity against P. falciparum in vitro, strain W2 Mef; conditions: 48 h-72 h, read-out: IC50 (50% growth inhibition)
Description: as §1, §2, §3, §4, §5, §6

[12] = tested on: Plasmodium falciparum, chloroquine-sensitive strain FCH5C2; experiment: activity against P. falciparum in vitro, strain FCH5C2; conditions: chloroquine-sensitive strain FCH5C2, 48 h-72 h, read-out: IC50 (50% growth inhibition)
Description: as §1, §2, §3, §4, §5, §6

| SMILES | IC50 [1] | IC50 [2] | IC50 [3] | IC50 [4] | IC50 [5] | IC50 [6] | IC50 [7] | IC50 [8] | IC50 [9] | IC50 [10] | IC50 [11] | IC50 [12] |
| --- | --- | --- | --- | --- | --- | --- | --- | --- | --- | --- | --- | --- |
| CC(C)(CN1CCCCC1)Nc1ccnc2cc(Cl)ccc12 [Example 14, (7-Chloro-quinolin-4-yl)-(1,1-dimethyl-2-piperidin-1-yl-ethyl)-amine] | 9 ng/mL (≈ 0.0283 µM) | 4 ng/mL (≈ 0.0126 µM) | 6 ng/mL (≈ 0.0189 µM) | 9 ng/mL (≈ 0.0283 µM) | 20 ng/mL (≈ 0.0629 µM) | 21 ng/mL (≈ 0.0661 µM) | 10 ng/mL (≈ 0.0315 µM) | 8 ng/mL (≈ 0.0252 µM) | 7 ng/mL (≈ 0.022 µM) | 6 ng/mL (≈ 0.0189 µM) | 14 ng/mL (≈ 0.044 µM) | 8 ng/mL (≈ 0.0252 µM) |
| CC1CCCCN1CCNc1ccnc2cc(Cl)ccc12 (racemic) [Example 26, (RS)-(7-Chloro-quinolin-4-yl)-[2-(2-methyl-piperidin-1-yl) -ethyl]-amine] | 7 ng/mL (≈ 0.023 µM) | 5 ng/mL (≈ 0.0165 µM) | 9 ng/mL (≈ 0.0296 µM) | 8 ng/mL (≈ 0.0263 µM) | 15 ng/mL (≈ 0.0494 µM) | 15 ng/mL (≈ 0.0494 µM) | 9 ng/mL (≈ 0.0296 µM) | 8 ng/mL (≈ 0.0263 µM) | 8 ng/mL (≈ 0.0263 µM) | 6 ng/mL (≈ 0.0197 µM) | 13 ng/mL (≈ 0.0428 µM) | 8 ng/mL (≈ 0.0263 µM) |
| CC(CN1CCCCC1)Nc1ccnc2cc(Cl)ccc12 (racemic) [Example 4, (RS)-(7-Chloro-quinolin-4-yl)-(1-methyl-2-piperidin-1-yl-ethyl)-amine] | 7 ng/mL (≈ 0.023 µM) | 4 ng/mL (≈ 0.0132 µM) | 7 ng/mL (≈ 0.023 µM) | 8 ng/mL (≈ 0.0263 µM) | 15 ng/mL (≈ 0.0494 µM) | 15 ng/mL (≈ 0.0494 µM) | 8 ng/mL (≈ 0.0263 µM) | 9 ng/mL (≈ 0.0296 µM) | 7 ng/mL (≈ 0.023 µM) | 5 ng/mL (≈ 0.0165 µM) | 14 ng/mL (≈ 0.0461 µM) | 8 ng/mL (≈ 0.0263 µM) |
| CN(C)CCNc1ccnc2cc(C(F)(F)F)ccc12 [Example 22, N1,N1 -Dimethyl-N2-(7trifluoromethyl-quinolin-4-yl)-ethane-1,2-diamine] | 14 ng/mL (≈ 0.0494 µM) | 11 ng/mL (≈ 0.0388 µM) | 18 ng/mL (≈ 0.0635 µM) | 20 ng/mL (≈ 0.0706 µM) | 11 ng/mL (≈ 0.0388 µM) | 22 ng/mL (≈ 0.0777 µM) | 16 ng/mL (≈ 0.0565 µM) | 20 ng/mL (≈ 0.0706 µM) | 29 ng/mL (≈ 0.102 µM) | 14 ng/mL (≈ 0.0494 µM) | 23 ng/mL (≈ 0.0812 µM) | 17 ng/mL (≈ 0.06 µM) |
| CC1(C)CCCN(CCNc2ccnc3cc(Cl)ccc23)C1 [Example 25, (7-Chloro-quinolin-4-yl)-[2-(3,3-dimethyl-piperidin-1-yl)-ethyl]-amine] | 8 ng/mL (≈ 0.0252 µM) | 5 ng/mL (≈ 0.0157 µM) | 8 ng/mL (≈ 0.0252 µM) | 10 ng/mL (≈ 0.0315 µM) | 26 ng/mL (≈ 0.0818 µM) | 22 ng/mL (≈ 0.0692 µM) | 15 ng/mL (≈ 0.0472 µM) | 14 ng/mL (≈ 0.044 µM) | 11 ng/mL (≈ 0.0346 µM) | 8 ng/mL (≈ 0.0252 µM) | 16 ng/mL (≈ 0.0503 µM) | 8 ng/mL (≈ 0.0252 µM) |
| CC1CCCN(CCNc2ccnc3cc(Cl)ccc23)C1 (racemic) [Example 23, (RS)-(7-Chloro-quinolin-4-yl)-[2-(3-methyl-piperidin-1-yl)-ethyl]-amine] | 6 ng/mL (≈ 0.0197 µM) | 4 ng/mL (≈ 0.0132 µM) | 7 ng/mL (≈ 0.023 µM) | 7 ng/mL (≈ 0.023 µM) | 15 ng/mL (≈ 0.0494 µM) | 15 ng/mL (≈ 0.0494 µM) | 8 ng/mL (≈ 0.0263 µM) | 10 ng/mL (≈ 0.0329 µM) | 8 ng/mL (≈ 0.0263 µM) | 6 ng/mL (≈ 0.0197 µM) | 13 ng/mL (≈ 0.0428 µM) | 6 ng/mL (≈ 0.0197 µM) |
| Clc1ccc2c(NCCN3CC4CCC(CC4)C3)ccnc2c1 [Example 32] | 7 ng/mL (≈ 0.0212 µM) | 7 ng/mL (≈ 0.0212 µM) | 8 ng/mL (≈ 0.0243 µM) | 9 ng/mL (≈ 0.0273 µM) | 15 ng/mL (≈ 0.0455 µM) | 16 ng/mL (≈ 0.0485 µM) | 15 ng/mL (≈ 0.0455 µM) | 16 ng/mL (≈ 0.0485 µM) | 15 ng/mL (≈ 0.0455 µM) | 10 ng/mL (≈ 0.0303 µM) | 13 ng/mL (≈ 0.0394 µM) | 9 ng/mL (≈ 0.0273 µM) |
| CC1CC(C)CN(CCNc2ccnc3cc(Cl)ccc23)C1 (stereo not drawn) [Example 29, (7-Chloro-quinolin-4-yl)-[2-(3,5-dimethyl-piperidin-1-yl)-ethyl]-amine] | 6 ng/mL (≈ 0.0189 µM) | 3 ng/mL (≈ 0.00944 µM) | 5 ng/mL (≈ 0.0157 µM) | 7 ng/mL (≈ 0.022 µM) | 15 ng/mL (≈ 0.0472 µM) | 16 ng/mL (≈ 0.0503 µM) | 7 ng/mL (≈ 0.022 µM) | 11 ng/mL (≈ 0.0346 µM) | 5 ng/mL (≈ 0.0157 µM) | 6 ng/mL (≈ 0.0189 µM) | 11 ng/mL (≈ 0.0346 µM) | 6 ng/mL (≈ 0.0189 µM) |
